The target of this assay is D2LR (Homo sapiens, UniProt P14416). The conditions noted are these: 0.1 nM [3H]spiperone; 3 h at 37 °C; 100 μM GppNHp.
D2LR, sequence (P14416 whole entry): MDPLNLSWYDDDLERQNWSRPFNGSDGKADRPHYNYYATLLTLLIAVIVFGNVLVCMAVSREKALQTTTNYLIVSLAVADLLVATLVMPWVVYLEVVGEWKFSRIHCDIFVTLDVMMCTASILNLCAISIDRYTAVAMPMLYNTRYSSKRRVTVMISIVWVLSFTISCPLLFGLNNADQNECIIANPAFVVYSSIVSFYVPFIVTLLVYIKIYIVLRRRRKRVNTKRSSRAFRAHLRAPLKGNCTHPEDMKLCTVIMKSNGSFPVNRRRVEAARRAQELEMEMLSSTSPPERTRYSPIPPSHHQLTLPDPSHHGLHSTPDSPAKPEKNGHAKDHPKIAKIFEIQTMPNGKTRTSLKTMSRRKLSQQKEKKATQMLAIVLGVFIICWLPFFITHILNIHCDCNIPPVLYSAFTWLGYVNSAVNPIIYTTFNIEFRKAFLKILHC

Method: The cells were harvested in PBS containing 2 mM EDTA and centrifuged at 300 g for 3 min. The resulting pellet was resuspended in ice-cold assay buffer (20 mM HEPES, 100 mM NaCl, 6 mM MgCl2, 1 mM EGTA and 1 mM EDTA pH 7.4) and the centrifugation step was repeated. The intact cell pellet was then resuspended in assay buffer and homogenized using a Polytron homogenizer. After centrifugation (1,000 g, 10 min), the pellet was discarded and the supernatant was recentrifuged at 30,000 g for 1 h at 4 °C using a Sorvall Evolution RC ultracentrifuge (Thermo Scientific). The resulting pellet was resuspended in assay buffer and stored in 250 μl aliquots at −80 °C. Membrane protein concentration was determined using the method of Bradford.
All radioligand binding experiments were conducted at 37 °C in a 1-ml reaction volume in assay buffer (20 mM HEPES, 100 mM NaCl, 6 mM MgCl2, 1 mM EGTA and 1 mM EDTA pH 7.4) containing 100 μM GppNHp and 0.1% ascorbic acid. In all cases, nonspecific binding was determined in the presence of 10 μM haloperidol. […] Filter-bound radioactivity was measured by scintillation spectrometry after the addition of 3.5 ml of Ultima Gold (PerkinElmer) using a Tri-Carb 2900TR liquid scintillation counter (PerkinElmer).
where Y denotes the percentage-specific binding, Top and Bottom denote the maximal and minimal asymptotes, respectively, IC50 denotes the X-value when the response is midway between Bottom and Top, and nH denotes the Hill slope factor. IC50 values obtained from the inhibition curves were converted to Ki values using the Cheng and Prusoff equation[61].

For `CN1CCN(c2cccc3[nH]c(=O)oc23)CC1` [Pardoprunox, pardoprunox], the “pKi (affinity from competition binding experiments using [3H]spiperone)” value stood at 7.63 ± 0.06.
